Results from patent US11008334B2, “Compositions and methods for treating cancer” (The Regents of the University of California, priority 2012, dated 2021).
Read-outs that look alike come from different tables or passages of the source.

Target: T1, K-RasG12C (1-169) (Homo sapiens, UniProt P01116, G12C)
T1 construct: Un-tagged recombinant K-Ras G12C (1-169) at 4 μM in Buffer A; hexahistidine (cleaved yes); made in house; host or cells: Escherichia coli BL21 (DE)
Test: Mass spectrometric screen for extent of covalent labeling
Assay type: binding
Conditions: for percent covalent labeling at 10 µM: 10 micromolar; for Labeling % (10 micM) 24h: 10 micM compound, (plate) or (single) measurement
Method: Un-tagged recombinant K-Ras G12C (1-169) at 4 μM in Buffer A was reacted with inhibitors at 200 μM or 10 μM (2% DMSO final). At 2, 6, and 24 hrs, 10 μL aliquots were removed and the reactions were stopped by addition of 1 μL 2% formic acid. The extent of modification was determined by mass spectrometry.

[1] = 2 h, 2 hrs, read-out: Percent reduction in activity of compound at 10 micromolar relative to control (no compound), 2 hrs
[2] = 6 h, 6 hrs, read-out: Percent reduction in activity of compound at 10 micromolar relative to control (no compound), 6 hrs
[3] = 24 h, 24 hrs, read-out: Percent reduction in activity of compound at 10 micromolar relative to control (no compound), 24 hrs

| SMILES | percent covalent labeling at 10 µM [1] [%] | percent covalent labeling at 10 µM [2] [%] | percent covalent labeling at 10 µM [3] [%] | Labeling % (10 micM) 24h | Labeling % (10 micM) 24h (Table 5) |
| --- | --- | --- | --- | --- | --- |
| C=CC(=O)NC1CCN(C(=O)COc2ccc(Cl)cc2Cl)CC1 [JO-01-171] | ≤ 5 | ≤ 5 | ≤ 5 |  |  |
| C=CC(=O)N1CCN(C(=O)COc2ccc(Cl)cc2Cl)CC1 [JO-01-172] | ≤ 5 | ≤ 5 | ≤ 5 |  |  |
| C=CS(=O)(=O)NC1CCN(C(=O)CSc2ccc(Cl)cc2Cl)CC1 [JO-02-26] | ≤ 5 | ≤ 5 | 5 to 20 |  |  |
| C=CS(=O)(=O)NC1CCN(C(=O)COc2ccc(Cl)cc2Cl)CC1 [JO-02-31A] | ≤ 5 | ≤ 5 |  | ++ (plate) (5% < ++ <=20%) | ++ (plate) (5% < ++ <=20%) |
| C=CS(=O)(=O)NC1CCN(C(=O)CSc2ccc(Cl)cc2C)CC1 [JO-02-31B] | ≤ 5 | ≤ 5 | 5 to 20 |  |  |
| C=CS(=O)(=O)NC1CCN(C(=O)CSc2ccc(Cl)c3ccccc23)CC1 [JO-02-31C] | ≤ 5 | ≤ 5 | 20 to 40 |  |  |
| C=CS(=O)(=O)NC1CCN(C(=O)CSc2c(Cl)cccc2Cl)CC1 [JO-02-31D] | ≤ 5 | ≤ 5 | ≤ 5 |  |  |
| C=CS(=O)(=O)NCCNC(=O)COc1ccc(Cl)cc1Cl [JO-02-36A] | ≤ 5 | ≤ 5 | ≤ 5 |  |  |
| C=CS(=O)(=O)NCCCNC(=O)COc1ccc(Cl)cc1Cl [JO-02-36B] | ≤ 5 | ≤ 5 | ≤ 5 |  |  |
| C=CC(=O)NCCNC(=O)COc1ccc(Cl)cc1Cl [JO-02-37A] | ≤ 5 | ≤ 5 | ≤ 5 |  |  |
| C=CC(=O)NCCCNC(=O)COc1ccc(Cl)cc1Cl [JO-02-37B] | ≤ 5 | ≤ 5 | ≤ 5 |  |  |
| C=CS(=O)(=O)Nc1cc(-c2cccs2)n[nH]1 [JO-02-38B] | ≤ 5 | ≤ 5 | ≤ 5 |  |  |
| C=CS(=O)(=O)NC1CCN(C(=O)c2cc3cc(Cl)ccc3[nH]2)CC1 [JO-02-49A] | ≤ 5 | ≤ 5 | ≤ 5 |  |  |
| C=CS(=O)(=O)NC1CCN(C(=O)c2cc3cc(F)ccc3[nH]2)CC1 [JO-02-49B] | ≤ 5 | ≤ 5 | ≤ 5 |  |  |
| C=CS(=O)(=O)NC1CCN(C(=O)c2cc3cc(OC)ccc3[nH]2)CC1 [JO-02-49C] | ≤ 5 | ≤ 5 | ≤ 5 |  |  |
| C=CS(=O)(=O)N1CCC(NC(=O)COc2ccc(Cl)cc2Cl)CC1 [JO-02-55] | ≤ 5 | ≤ 5 | 5 to 20 |  |  |
| C=CS(=O)(=O)NCC(=O)NC1CCN(C(=O)COc2ccc(Cl)cc2Cl)CC1 [JO-02-56A] | ≤ 5 | ≤ 5 | 40 to 60 | ++++ (plate) (40% < ++++ <=60%) | ++++ (plate) (40% < ++++ <=60%) |
| C=CS(=O)(=O)NCC(=O)N1CCC(NC(=O)COc2ccc(Cl)cc2Cl)CC1 [JO-02-56B] | ≤ 5 | ≤ 5 | 5 to 20 |  |  |
| O=C(NC1CCN(C(=O)COc2ccc(Cl)cc2Cl)CC1)C1CO1 (stereo not shown) [JO-02-72] | ≤ 5 | ≤ 5 | ≤ 5 |  |  |
| C=CS(=O)(=O)N1CC2CN(C(=O)COc3ccc(Cl)cc3Cl)CC2C1 (stereo not shown) [JO-02-74A] | ≤ 5 | ≤ 5 | 20 to 40 |  |  |
| C=CS(=O)(=O)N1CCC2(CCN(C(=O)COc3ccc(Cl)cc3Cl)C2)C1 (stereo not shown) [JO-02-74B] | ≤ 5 | ≤ 5 | 5 to 20 |  |  |
| C=CS(=O)(=O)N1CCC2(CN(C(=O)COc3ccc(Cl)cc3Cl)C2)C1 [JO-02-74C] | ≤ 5 | ≤ 5 | 5 to 20 |  |  |
| O=C(COc1ccc(Cl)cc1Cl)N1CCC(NCC2CO2)CC1 (stereo not shown) [JO-02-77A] | ≤ 5 | ≤ 5 | ≤ 5 |  |  |
| C=CS(=O)(=O)N1CCC2(CC1)CN(C(=O)COc1ccc(Cl)cc1Cl)C2 [JO-02-112A] | ≤ 5 | ≤ 5 | 5 to 20 |  |  |

| SMILES | percent covalent labeling at 10 µM [1] [%] | percent covalent labeling at 10 µM [2] [%] | percent covalent labeling at 10 µM [3] [%] | Labeling % (10 micM) 24h | Labeling % (10 micM) 24h (Table 5) |
| --- | --- | --- | --- | --- | --- |
| C=CS(=O)(=O)C1CCC2(CC1)CCN(C(=O)COc1ccc(Cl)cc1Cl)C2 (stereo not shown) [JO-02-112B] | ≤ 5 | ≤ 5 | 5 to 20 |  |  |
| C=CS(=O)(=O)NCC1CCN(C(=O)COc2ccc(Cl)cc2Cl)CC1 [JO-02-112C] | ≤ 5 | ≤ 5 | ≤ 5 |  |  |
| C=CS(=O)(=O)N1CCN(C(=O)COc2ccc(Cl)cc2Cl)CC1 [JO-02-112D] | ≤ 5 | ≤ 5 | 20 to 40 | +++ (plate) (20%< +++ <=40%) | +++ (plate) (20%< +++ <=40%) |
| C=CS(=O)(=O)NC1CCN(C(=O)COc2ccc(Cl)cc2)CC1 [JO-02-115A] | ≤ 5 | ≤ 5 | ≤ 5 |  |  |
| C=CS(=O)(=O)NC1CCN(C(=O)C(C)Oc2ccc(Cl)cc2Cl)CC1 (stereo not shown) [JO-02-115B] | ≤ 5 | ≤ 5 | ≤ 5 |  |  |
| C=CS(=O)(=O)NC1CCN(C(=O)[C@@H](C)Oc2ccc(Cl)cc2Cl)CC1 [JO-02-115C] | ≤ 5 | ≤ 5 | ≤ 5 |  |  |
| C=CS(=O)(=O)NC1CCN(C(=O)COc2cc(Cl)c(Cl)cc2Cl)CC1 [JO-02-115D] | ≤ 5 | ≤ 5 | 20 to 40 |  |  |
| C=CS(=O)(=O)NC1CCN(C(=O)C(C)Oc2cc(Cl)c(Cl)cc2Cl)CC1 (stereo not shown) [JO-02-116A] | ≤ 5 | ≤ 5 | ≤ 5 |  |  |
| C=CS(=O)(=O)NC1CCN(C(=O)COc2nc(Cl)c(Cl)cc2Cl)CC1 [JO-02-116B] | ≤ 5 | ≤ 5 | ≤ 5 |  |  |
| C=CS(=O)(=O)NCC(=O)Nc1cc(-c2cccs2)n[nH]1 [JO-02-125] | ≤ 5 | ≤ 5 | 20 to 40 |  |  |
| C=CS(=O)(=O)NCC(=O)Nc1cc(-c2ccc(Cl)cc2)n[nH]1 [JO-02-139E] | ≤ 5 | ≤ 5 | ≤ 5 |  |  |
| C=CS(=O)(=O)NC1CCN(C(=O)CNc2cc(Cl)c(Cl)cc2I)CC1 [JO-02-144] | ≤ 5 | 5 to 20 | > 60 |  |  |
| O=C(NC1CCN(C(=O)CNc2cc(Cl)c(Cl)cc2I)CC1)C1CO1 (stereo not shown) [JO-02-152] | ≤ 5 | ≤ 5 | 20 to 40 |  |  |
| C=CC(=O)N1CCN(C(=O)CNc2cc(Cl)c(Cl)cc2I)CC1 [JO-02-155] | ≤ 5 | 5 to 20 | 40 to 60 |  |  |
| C=CC(=O)N1CC[C@@H](NC(=O)CNc2cc(Cl)c(Cl)cc2I)C1 [JO-02-157A (R)] | ≤ 5 | ≤ 5 | ≤ 5 |  |  |
| C=CC(=O)N1CC[C@H](NC(=O)CNc2cc(Cl)c(Cl)cc2I)C1 [JO-02-157B (S)] | ≤ 5 | ≤ 5 | 5 to 20 |  |  |
| C=CC(=O)N1CCN(C(=O)COc2ccc(Cl)cc2Cl)CC1 [JO-02-172] |  |  |  | + (plate) (+ <=5%) | + (plate) (+ <=5%) |
| N#CC1(NC(=O)C2CCN(C(=O)COc3ccc(Cl)cc3Cl)CC2)CC1 [Ras-001] | ≤ 5 | ≤ 5 | ≤ 5 |  |  |
| C=CC(=O)NC1CCN(C(=O)COc2c(Cl)cc(Cl)cc2Cl)CC1 [Ras-002] | ≤ 5 | ≤ 5 | ≤ 5 |  |  |
| C=CC(=O)NC1CCN(C(=O)Cn2cnc3ccccc32)CC1 [Ras-003] | ≤ 5 | ≤ 5 | ≤ 5 |  |  |
| C=CC(=O)NC1CCN(C(=O)Cn2ncc3ccccc32)CC1 [Ras-004] | ≤ 5 | ≤ 5 | ≤ 5 |  |  |
| C=CC(=O)NC1CCN(C(=O)CCn2cnc3ccccc32)CC1 [Ras-005] | ≤ 5 | ≤ 5 | ≤ 5 |  |  |
| C=CC(=O)NC1CCN(C(=O)CCn2ncc3ccccc32)CC1 [Ras-006] | ≤ 5 | ≤ 5 | ≤ 5 |  |  |
